The values that follow come from publication PMC12018053 (Biochemistry and Biophysics Reports, 2025).

In one series the target is T1, Human sEH (Homo sapiens, UniProt P34913).
T1 sequence (P34913 1-555): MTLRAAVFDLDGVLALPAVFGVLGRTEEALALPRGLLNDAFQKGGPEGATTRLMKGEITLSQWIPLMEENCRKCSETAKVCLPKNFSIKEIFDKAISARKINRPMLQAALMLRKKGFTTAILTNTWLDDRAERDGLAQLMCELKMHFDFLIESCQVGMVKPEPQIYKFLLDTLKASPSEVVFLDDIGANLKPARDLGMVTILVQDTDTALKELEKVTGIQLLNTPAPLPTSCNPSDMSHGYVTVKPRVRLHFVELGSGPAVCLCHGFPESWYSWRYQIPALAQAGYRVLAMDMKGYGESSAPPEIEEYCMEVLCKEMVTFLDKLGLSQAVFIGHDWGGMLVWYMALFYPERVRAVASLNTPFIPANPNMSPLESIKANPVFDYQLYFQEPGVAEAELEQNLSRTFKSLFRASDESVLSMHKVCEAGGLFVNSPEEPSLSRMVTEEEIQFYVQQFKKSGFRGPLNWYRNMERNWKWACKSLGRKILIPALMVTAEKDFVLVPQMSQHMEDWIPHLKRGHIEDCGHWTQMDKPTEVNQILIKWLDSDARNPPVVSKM
Description: sEH fluorescent-based inhibition assay. It is filed as biochemical.

Another series concerns the target T2, Rat sEH (Rattus norvegicus, UniProt P80299).
T2 sequence (P80299 1-554): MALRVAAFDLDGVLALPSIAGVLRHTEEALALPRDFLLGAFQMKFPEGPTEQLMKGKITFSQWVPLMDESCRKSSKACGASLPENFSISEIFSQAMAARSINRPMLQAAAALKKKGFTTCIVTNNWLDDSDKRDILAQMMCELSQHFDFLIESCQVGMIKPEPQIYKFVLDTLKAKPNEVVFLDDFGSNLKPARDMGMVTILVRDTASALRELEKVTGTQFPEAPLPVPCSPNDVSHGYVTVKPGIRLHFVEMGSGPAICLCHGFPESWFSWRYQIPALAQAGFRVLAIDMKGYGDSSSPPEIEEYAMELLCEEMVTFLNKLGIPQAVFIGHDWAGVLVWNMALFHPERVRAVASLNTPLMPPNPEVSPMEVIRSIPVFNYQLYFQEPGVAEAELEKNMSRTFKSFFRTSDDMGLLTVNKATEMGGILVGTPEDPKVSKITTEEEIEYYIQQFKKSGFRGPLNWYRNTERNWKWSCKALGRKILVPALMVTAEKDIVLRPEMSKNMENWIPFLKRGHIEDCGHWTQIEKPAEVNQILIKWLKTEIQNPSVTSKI
Description: sEH fluorescent-based inhibition assay. The format is biochemical.

The nature of the next series: physchem. The conditions noted are these: sodium phosphate buffer, 24 °C, pH 7.4, aqueous buffer, kinetic from dmso stock.
In another series the target is T3, Mouse sEH (Mus musculus, UniProt P34914).
T3 sequence (P34914 1-554): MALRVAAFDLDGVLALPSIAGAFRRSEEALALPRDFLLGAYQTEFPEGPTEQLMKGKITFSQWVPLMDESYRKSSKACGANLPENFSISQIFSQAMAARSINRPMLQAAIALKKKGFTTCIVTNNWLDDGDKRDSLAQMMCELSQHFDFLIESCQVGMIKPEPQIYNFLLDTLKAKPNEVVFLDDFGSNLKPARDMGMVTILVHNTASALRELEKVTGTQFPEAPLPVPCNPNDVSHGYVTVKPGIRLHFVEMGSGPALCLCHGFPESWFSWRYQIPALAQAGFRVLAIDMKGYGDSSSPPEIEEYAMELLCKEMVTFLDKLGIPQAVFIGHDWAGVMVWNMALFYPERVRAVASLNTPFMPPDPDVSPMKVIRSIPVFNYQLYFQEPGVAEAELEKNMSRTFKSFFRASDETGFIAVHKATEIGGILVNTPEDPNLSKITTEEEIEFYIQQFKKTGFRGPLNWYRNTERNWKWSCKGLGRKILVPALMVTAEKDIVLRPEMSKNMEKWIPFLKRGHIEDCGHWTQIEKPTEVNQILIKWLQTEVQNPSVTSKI
Nature of the series: sEH fluorescent-based inhibition assay. The format is biochemical.

Series [1] relates to temporomandibular joint (TMJ). The following applies: local administration; cited from earlier work.
A further series deals with rats. The conditions noted are these: 1 mg/kg; cited from earlier work.

Converted amounts (≈) assume the structure as drawn.

As usually defined, the IC50 is the point on the concentration scale where inhibition reaches its midpoint. Read a high IC50 as weaker potency in that assay. In general, solubility refers to how much of the substance goes into solution per volume. Lower therefore signals little dissolved substance.

`O=C(Nc1ccc(-c2nccc3ccccc23)cc1)C1CCN(S(=O)(=O)c2ccccc2Cl)CC1` [Compound 4a, 1-((2-chlorophenyl)sulfonyl)-N-(4-(isoquinolin-1-yl)phenyl)piperidine-4-carboxamide]: the IC50 was 3.7 nM against Human sEH, 3.7 nM on Rat sEH and 283 nM at Mouse sEH. In “physchem”, this compound registered a solubility of 56 µM (≈ 28.3 µg/mL).

As for `O=C(Nc1ccc(-c2cc3ccccc3cn2)cc1)C1CCN(S(=O)(=O)c2ccccc2Cl)CC1` [Compound 4b, 1-((2-chlorophenyl)sulfonyl)-N-(4-(isoquinolin-3-yl)phenyl)piperidine-4-carboxamide], the IC50 at Human sEH is 18.7 nM; against Rat sEH, 11.5 nM; against Mouse sEH, 236 nM. This compound also gave a solubility in “physchem” of 51.6 µM (≈ 26.1 µg/mL).

With `O=C(Nc1ccc(-c2cncc3ccccc23)cc1)C1CCN(S(=O)(=O)c2ccccc2Cl)CC1` [Compound 4c, 1-((2-chlorophenyl)sulfonyl)-N-(4-(isoquinolin-4-yl)phenyl)piperidine-4-carboxamide], the results for the half-inhibitory concentration (IC50) on Human sEH, on Rat sEH and against Mouse sEH were 0.4 nM, 0.8 nM and 22.3 nM, respectively. In “physchem”, the solubility was 49.2 µM (≈ 24.9 µg/mL).

On to `O=C(Nc1ccc(-c2cccc3cnccc23)cc1)C1CCN(S(=O)(=O)c2ccccc2Cl)CC1` [Compound 4d, 1-((2-chlorophenyl)sulfonyl)-N-(4-(isoquinolin-5-yl)phenyl)piperidine-4-carboxamide], for which the values for the half-maximal inhibitory concentration (IC50) against Human sEH, against Rat sEH and on Mouse sEH were 0.4 nM, 2.2 nM and 30.6 nM, respectively. Moreover, the solubility in “physchem” amounted to 40 µM (≈ 20.3 µg/mL).

Consider `O=C(Nc1ccc(-c2ccc3cnccc3c2)cc1)C1CCN(S(=O)(=O)c2ccccc2Cl)CC1` [Compound 4e, 1-((2-chlorophenyl)sulfonyl)-N-(4-(isoquinolin-6-yl)phenyl)piperidine-4-carboxamide], for which the IC50 against Human sEH was found to be 1.8 nM; on Rat sEH it was 0.5 nM; at Mouse sEH, 51.3 nM. This compound also yielded a solubility in the series “physchem” of 55.8 µM (≈ 28.2 µg/mL).

Take `O=C(Nc1ccc(-c2cccc3ccncc23)cc1)C1CCN(S(=O)(=O)c2ccccc2Cl)CC1` [Compound 4g, 1-((2-chlorophenyl)sulfonyl)-N-(4-(isoquinolin-8-yl)phenyl)piperidine-4-carboxamide]: the figures for the IC50 on Human sEH, against Rat sEH and against Mouse sEH were 1.4 nM, 4.7 nM and 69 nM, respectively. The compound further yielded a solubility in the series “physchem” of 65.6 µM (≈ 33.2 µg/mL).

Consider `O=C(Nc1ccc(-c2ccccn2)cc1)C1CCN(S(=O)(=O)c2ccccc2Cl)CC1` [Compound 4h, 1-((2-chlorophenyl)sulfonyl)-N-(4-(pyridin-2-yl)phenyl)piperidine-4-carboxamide], for which the IC50 on Rat sEH came out at 1.9 nM; against Mouse sEH, 188 nM. In “physchem”, the solubility is 66.7 µM (≈ 30.4 µg/mL).

As to `O=C(Nc1ccc(-c2cccnc2)cc1)C1CCN(S(=O)(=O)c2ccccc2Cl)CC1` [Compound 4i, 1-((2-chlorophenyl)sulfonyl)-N-(4-(pyridin-3-yl)phenyl)piperidine-4-carboxamide], the results for the concentration for half-maximal inhibition (IC50) on Human sEH, against Rat sEH and against Mouse sEH were 1.3 nM, 2.8 nM and 127 nM, respectively. Besides, the solubility in the series “physchem” is 51.1 µM (≈ 23.3 µg/mL).

With `O=C(Nc1ccc(-c2ccncc2)cc1)C1CCN(S(=O)(=O)c2ccccc2Cl)CC1` [Compound 4j, 1-((2-chlorophenyl)sulfonyl)-N-(4-(pyridin-4-yl)phenyl)piperidine-4-carboxamide], the 50% inhibitory concentration (IC50) came out at 1.8 nM on Human sEH, 3.1 nM against Rat sEH and 133 nM against Mouse sEH. Further, in “physchem”, the solubility amounted to 50.9 µM (≈ 23.2 µg/mL).

On to `Cc1cccc(-c2ccc(NC(=O)C3CCN(S(=O)(=O)c4ccccc4Cl)CC3)cc2)n1` [Compound 4k, 1-((2-chlorophenyl)sulfonyl)-N-(4-(6-methylpyridin-2-yl)phenyl)piperidine-4-carboxamide], for which the IC50 at Human sEH amounted to 4.7 nM; on Rat sEH, 1.6 nM; at Mouse sEH, 226 nM. In the series “physchem”, this compound registered a solubility of 43.4 µM (≈ 20.4 µg/mL).

As for `Cc1ccnc(-c2ccc(NC(=O)C3CCN(S(=O)(=O)c4ccccc4Cl)CC3)cc2)c1` [Compound 4l, 1-((2-chlorophenyl)sulfonyl)-N-(4-(4-methylpyridin-2-yl)phenyl)piperidine-4-carboxamide], the IC50 is 5.1 nM against Human sEH, 10.3 nM on Rat sEH and 499 nM at Mouse sEH. In “physchem”, this compound registered a solubility of 36.4 µM (≈ 17.1 µg/mL).

With `Cc1cncc(-c2ccc(NC(=O)C3CCN(S(=O)(=O)c4ccccc4Cl)CC3)cc2)c1` [Compound 4m, 1-((2-chlorophenyl)sulfonyl)-N-(4-(5-methylpyridin-3-yl)phenyl)piperidine-4-carboxamide], the half-inhibitory concentration (IC50) amounted to 2.6 nM at Human sEH, 1.1 nM against Rat sEH and 175 nM at Mouse sEH. The compound further had a solubility in the series “physchem” of 49.4 µM (≈ 23.2 µg/mL).

Take `Cc1cc(-c2ccc(NC(=O)C3CCN(S(=O)(=O)c4ccccc4Cl)CC3)cc2)ccn1` [Compound 4n, 1-((2-chlorophenyl)sulfonyl)-N-(4-(2-methylpyridin-4-yl)phenyl)piperidine-4-carboxamide]: the IC50 was determined as 5.8 nM at Human sEH, 3.6 nM against Rat sEH and 259 nM at Mouse sEH. In “physchem”, this compound came in with a solubility of 53 µM (≈ 24.9 µg/mL).

`CCC(=O)N1CCC(NC(=O)Nc2ccc(OC(F)(F)F)cc2)CC1` [TPPU]: the “Effect on formalin-induced hyperalgesia within the temporomandibular joint” value in series [1] is “prevented formalin-induced hyperalgesia”.

As for `NC(=O)c1cccc(-c2cc(OC(=O)NC3CCCCC3)ccc2O)c1` [URB937], the “Effect on NTG-induced trigeminal hyperalgesia” value with rats is on record as “reversed NTG-induced trigeminal hyperalgesia”.
